Data set [1] has as its system CaSki cells. Briefly: Cell cycle analysis using Propidium-Iodide staining (flow cytometry). Type of data set: cell-based, human. The conditions noted are these: 48 hour incubation; for A*/5 μM (apoptosis as measured from total SUB G1 content) / A*/10 μM (apoptosis as measured from total SUB G1 content): no treatment 15.0; for G2/5 μM / G1/5 μM / G2/10 μM / G1/10 μM: cell cycle distribution; for G2/5 μM / G2/10 μM: no treatment 15.6; for G1/5 μM / G1/10 μM: no treatment 53.3. Here is the method: Propidium-Iodide (PI) DNA staining is performed to facilitate cell cycle analysis. For PI-DNA staining, fixed cells and eventually antibody-stained cells are resuspended in 450 μl of PBS (per 10^6 cells) and incubated with 100 μg/ml RNase (stock 1 mg/ml, in PBS) for 10 minutes at 37° C. Cells are then incubated with 5 μg/106 cells of PI (stock 1 mg/ml in PBS) for 10 minutes at room temperature. Samples are stored at 4° C. until CF analysis.
CaSki cells were incubated with various compounds and cell cycle distribution of the cells was assessed using Propidium-Iodide staining.
In order to analyze the cytostatic versus the cytotoxic effect of OC compounds, cell cycle profiles were analyzed in vitro after 48 hour incubations using Flow Cytometry as a read out. For this a cell cycle analysis from selected OC E7 degrader compounds was conducted in CaSki cells. Using 6 well plates, 1.5×10^5 cells were seeded for each well and grown over night at 37° C. 5% CO2. For analysis of the cell cycle behavior, cells were analyzed in the presence of propidium Iodide (PI^−) by flow cytometry (FC). Briefly, cells were detached by trypsin digestion, all supernatants were included in the analysis, and fixed with 70% ice cold ethanol and stored at 4° C. until FC analysis using PI^− staining (1 mg/ml). At least 7000 events were acquired for each sample.

For data set [2], the system named is Retinoblastoma Protein pRb1. Put plainly: Western blot of SiHa (HPV+) cell extracts. Type of data set: cell-based, human. The conditions noted are these: 10 μM, 12 and 24 hours.
In data set [3] the test system is peripheral blood mononuclear cells (PBMC). Briefly: Monolayer SRB assay, PBMC. Type of data set: cell-based. Here is the method:
Various cell culture cells grown as monolayers are harvested from exponential growing cultures after treatment with various OC compounds at different concentrations. For this depending on the cell line, 10.000 to 30.000 cells were plated in 96-well flat-bottom microtiter plates. After a 24 h recovery period to allow cells to resume exponential growth, supernatants are discarded and 100 μl of culture medium (eight control wells/plate) or culture medium with the test compound are added by a liquid handling robotic system (Microlab® Starlet, Hamilton) and treatment continued for 72 hrs. Compounds are applied at 9 concentrations and eight wells/concentration). At least three independent experiments are performed. For SRB staining, cells are fixed with SRB01 (Tab. 5) for 1 h at 4° C. […] Optical density is assessed using a plate-reader (Sunrise, Tecan©) at 540 nm.
Concentrations required for half maximal response of the compound for cell growth inhibition (EC50) is calculated by non-linear regression (log[conc. of inhibitor] versus response (% T/C)) using the analysis software GraphPad Prism®, Prism 5 for windows, version 5.01 (GraphPad Software Inc., CA).

For data set [4], the system named is cell signaling molecules (4E-BP1, p70 S6 kinase, Akt, PTPN14, p53, PD-L1). Put plainly: Western blot of cell signaling molecules in CaSki cells.
The nature of data set [5]: Pharmacokinetics of VSP034 and VSP035 after oral administration of a liposomal formulation. Type of data set: in vivo, female Sprague-Dawley rats. The conditions noted are these: for AUC(0-inf) / Cmax / MRT inf / Tmax / half-life: female, Sprague-Dawley; for AUC(0-inf): AUC0-inf; for MRT inf: MRT0-inf. Here is the method:
The pharmacokinetic parameters of VSP034 and VSP035 encapsulated as liposomal formulation were assessed after the administration of a single 100 mg/kg dose by oral gavage to 6 female Sprague-Dawley rats weighting 250 grams (+25 g). The animals were randomized into two experimental groups (Groups 1 and 2), each composed of 3 rats. Rats belonging to group 1 were administered with VSP034 and rats belonging to group 2 were administered with VSP035. Blood was collected at baseline and 15 min, 30 min, 1, 2, 4, 6, 8, and 24 hours after the oral gavage. The rats were sacrificed 24 hours after the dosing. Blood was collected at each timepoint from the caudal vein, with the exception of the last collection (24 hours), which was performed by intracardiac puncture at the moment of sacrifice under isoflurane anesthesia. The animals were weighted immediately before the dosing to assess the proper dose and carefully monitored during the experiment. They were kept in standard housing conditions, meeting the legal requirements for the correct housing of rodents for a period not exceeding the maximum experimental endpoints. Ad libitum access to water and food was allowed. […] Humane endpoints have not been reached. The pharmacokinetic analysis was performed using Microsoft Excel plug-in PK Solver. Pharmacokinetic parameters of two compounds are compared with the software GraphPad Prism ver. 8.0 by Student's t test for unpaired data. A p value <0.05 is considered statistically significant.
Analytical method: Compound analysis was performed following the bioanalytical method as in Test 13. In this study, carbamazepine was used as an internal standard.
Pharmacokinetic analysis: A pharmacokinetic analysis of VSP034 and VSP035 was performed using the Excel plug-in 2.0 PK Solver. The results have been fitted according to a non-compartmental modelling following extravascular administration. Concentration-vs-time curves for VSP034 and VSP035.
The main pharmacokinetic parameters (half-life, t1/2; time to maximum plasma concentration, Tmax; maximum plasma concentration, Cmax, AUC Extrapolated to Infinity, AUC0-inf; mean residence time, MRT; Apparent Volume of Distribution During Terminal Phase, Vz/F; and apparent oral clearance, CL/F) were calculated from the coefficients and exponents of the best-fits by using standard formulae.

Setting [6] is: rat, in vivo, po, 100 mg/kg, Mean.
Setting [7] is: rat, in vivo, po, 100 mg/kg, Median.

Values joined by “and” are separate entries in the source; they are usually repeats but may differ in a detail not shown here. Equal entries are not always repeated.

As to `CN1CCC(CN2C(=O)c3ccccc3[C@@H](C(=O)Nc3cccc(N4CCN(C)CC4)c3)[C@@H]2c2ccc(C(F)(F)F)cc2)CC1` (racemic) [OC974, (3R,4R)- and (3S,4S)-N-[3-(4-methylpiperazin-1-yl)phenyl]-2-[(1-methylpiperidin-4-yl)methyl]-1-oxo-3-[4-(trifluoromethyl)phenyl]-3,4-dihydroisoquinoline-4-carboxamide], in data set [1], the “A*/5 μM (apoptosis as measured from total SUB G1 content)” value is recorded as 19.5%; the “A*/10 μM (apoptosis as measured from total SUB G1 content)” value was 82.9% and 81.8%; the “G2/5 μM” value is 9.9%; the “G1/5 μM” value was 49.6%. In addition, in data set [1], the “G2/10 μM” value worked out at 0.8% and the “G1/10 μM” value is 8.7%.
`Cc1ccc(CN2C(=O)c3ccccc3[C@H](C(=O)Nc3cccc(N4CCN(C)CC4)c3)[C@@H]2c2ccc(C(F)(F)F)cc2)cc1` [OC246, N-[3-(4-methylpiperazin-1-yl)phenyl]-2-[(4-methylphenyl)methyl]-1-oxo-3-[4-(trifluoromethyl)phenyl]-1,2,3,4-tetrahydroisoquinoline-4-carboxamide]: in data set [1], the “A*/5 μM (apoptosis as measured from total SUB G1 content)” value is listed as 19.6%, the “A*/10 μM (apoptosis as measured from total SUB G1 content)” value is 89.4%, the “G2/5 μM” value was found to be 15.7% and the “G1/5 μM” value is reported as 48.0%. Further, in data set [1], the “G2/10 μM” value was 0.2% and the “G1/10 μM” value is 1.5%. Further, the Rb protein signals result in data set [2] is on record as “increase of Rb protein signals”. This compound yielded an EC50 in data set [3] of over 100 µM. The “signaling of phosphor-Akt S473” value in data set [4] (10 μM, 4 hours, CaSki and U2OS cells) was “does not inhibit”.
`CN1CCC(CN2C(=O)c3ccccc3[C@H](C(=O)Nc3cccc(N4CCN(C)CC4)c3)[C@H]2c2ccc(C(F)(F)F)cc2)CC1` [VSP035, (3S,4S)-N-[3-(4-methylpiperazin-1-yl)phenyl]-2-[(1-methylpiperidin-4-yl)methyl]-1-oxo-3-[4-(trifluoromethyl)phenyl]-1,2,3,4-tetrahydroisoquinoline-4-carboxamide]: in data set [5] (setting [6]), the AUC(0-inf) came to 2230 ng·h/mL, the maximum concentration (Cmax) worked out at 246 ng/mL, the MRT inf was found to be 6.83 h and the Tmax was found to be 2.42 h. Further, in data set [5] (setting [7]), the AUC(0-inf) is 1480 ng·h/mL, the Cmax was determined as 277 ng/mL, the MRT inf was 6.59 h and the Tmax is 1 h. This compound also gave a half-life in data set [5] (rat, in vivo, po, 100 mg/kg, t1/2, Mean) of 4.43 h. In data set [5] (rat, in vivo, po, 100 mg/kg, t1/2, Median), this compound had a half-life of 3.57 h. In data set [5] (rat, in vivo, po, 100 mg/kg), the “Vz/F, Mean” value worked out at 0.291 L/g and the “Vz/F, Median” value is 0.278 L/g. Besides, in data set [5] (single 100 mg/kg oral gavage, observed 24 hours), the “condition of the rats after administration of the liposomal formulation” value is “did not show any sign of suffering or abnormal behavior”. Moreover, the “AUC relative to that of VSP034” value in data set [5] (single 100 mg/kg oral, significantly higher) is reported as 4 fold. Further, the PDL-1 regulation entry in data set [4] (CaSki, 4 and 8 hours, dose dependent) is given as “valid pdl-1 destabilizer”. For the same compound, the “p(S473)Akt, Sting and Irf-3 levels” value in data set [4] (CaSki, 10 μm VSP035 time course) is “do not appear to be influenced”. Moreover, in data set [4] (CaSki, 10 μm, 24 h time point), the “Ptpn14 and p53 levels” value is “increase in Ptpn14 and p53”. For the same compound, the “Phosphorylation of 4E-BP1 on Ser65 and the p70S6 kinase on Thr389” value in data set [4] (CaSki, 6 h, order 10 μM VSP035, Torin 1, Torin 2, rapamycin, 5 μM VSP035, CGP 57380) is reported as “inhibited or strongly reduced”. Further, in data set [4] (CaSki, 6 h treatment), the 4E-BP1 phosphorylation state entry is reported as “dose dependent hypophosphorylation of 4E-BP1”.
